Test [1] has as its target T1, p53 Y220C mutant protein (amino acid residues 94-293) (Homo sapiens, UniProt P04637, Y220C).
T1 construct: p53 Y220C mutant protein (amino acid residues 94-293)
As to the kind of experiment: Surface Plasmon Resonance (SPR) assay, p53 Y220C Kd_kinetic. The settings on record: multi-cycle kinetics, 16 or 20 °C, pH 7.5, 1:1 binding model. The protocol: SPR experiments are performed on a Biacore 8K instrument. […] Compounds are 2-fold, 7-point serial diluted; the top concentration varies depending on the potency. Compound binding affinities are measured in the multi-cycle kinetics mode, at 30 μL/min flow rate with 60 seconds association time and 120 seconds dissociation time. The running buffer contains 50 mM Tris, pH 7.5, 100 mM NaCl, 1 mM DTT, 0.01% Brij35, 0.05% Tween-20 and 1% DMSO. The assay temperature is maintained at 16 or 20 °C and data are fit into the 1:1 binding model using the Biacore Insight Evaluation software.

The target of the next test is p53 Y220C (Homo sapiens, UniProt P04637, Y220C). As to the kind of experiment: Luciferase Reporter Assay, p53 Y220C (NCIH1299 cells with inducible p53 Y220C and p53 response element-luciferase). To be noted: 6 hour compound treatment, read-out: Luc P53 Y220C AC50. The test is classed as cell-based. The protocol: Luciferase reporter (Luc) driven by p53 response element (LTV-p53-Luc (SKU #: LTLR007); G&P Biosciences) and inducible p53 Y220C construct (Tet-One inducible expression system; Takara) were stably expressed in NCIH1299 cells by lentiviral transduction. The cells were then used for p53 reporter assay. 5,000 cells were seeded in each well of 384 plate and cultured in 0.5 ug/mL doxycycline (D3072; Sigma) containing medium for 24 hours before compound treatment. After 6 hour of compound treatment, equal volume of One-Glo reagent (E6110; Promega) was added to each well and the plate was incubated for 5 minutes with shaking at room temperature. The luciferase activity was immediately measured with PheraStar microplate reader. Luciferase activity was stimulated by 10 uM of a tool compound as positive control and AC50 was calculated.

The next test relates to NUGC3 cells (p53 Y220C). As to the kind of experiment: Cell Proliferation Assay (CellTiter-Glo), NUGC3 p53 Y220C. The test is classed as cell-based. To be noted: Homo sapiens, NUGC-3, 120 h, 5 days, read-out: CTG NUGC3 P53 Y220C IC50. The protocol: (§1) Inducible p53 Y220C and R273H constructs (Tet-One inducible expression system; Takara) were stably expressed in NCIH1299 cells by lentiviral transduction. NUGC3, A549, BxPC3, T3M4, HuH7, HCC2935, MFE296, NCIH1299, NCIH1299-inducible p53 Y220C, and NCIH1299-inducible p53 R273H cell lines were used for cell proliferation assay. 250-500 cells were seeded in each well of 384 plate and then compounds were dispensed into each well using Echo or Tecan. After 5 days of incubation, equal volume of CellTiter-Glo reagent (G7570; Promega) was added into each well and the plate was incubated at room temperature for 10 minutes with shaking. The luminescent signal was measured by PheraStar microplate reader and IC50 was calculated.

Test [2] relates to NCIH1299-inducible p53 Y220C cells. As to the kind of experiment: Cell Proliferation Assay (CellTiter-Glo), NCIH1299-inducible p53 Y220C. The test is classed as cell-based. The settings on record: Homo sapiens, NCI-H1299, 120 h, 5 days, read-out: CTG H1299 P53 Y220C IC50. As to the method: as §1

T1 sequence (P04637 94-293, stated change not applied): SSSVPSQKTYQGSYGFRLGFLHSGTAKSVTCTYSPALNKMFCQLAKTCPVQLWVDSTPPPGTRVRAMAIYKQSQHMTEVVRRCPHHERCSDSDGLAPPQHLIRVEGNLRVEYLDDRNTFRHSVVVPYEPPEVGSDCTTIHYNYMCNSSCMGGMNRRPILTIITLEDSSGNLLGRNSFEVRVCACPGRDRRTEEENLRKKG

Consider `CN1CC[C@@H](Nc2cccn3c(SC(F)(F)F)c(-c4noc(CNC(=O)[C@@H]5COCCO5)n4)cc23)[C@@H](F)C1` [Example 11, (2S)—N-{[3-(8-{[(3S,4R)-3-fluoro-1-methylpiperidin-4-yl]amino}-3-[(trifluoromethyl)sulfanyl]indolizin-2-yl)-1,2,4-oxadiazol-5-yl]methyl}-1,4-dioxane-2-carboxamide], for which, in test [1], the Kd was less than 10 nM. The AC50 on p53 Y220C lay within 750 to 1500 nM. The IC50 (in the test with NUGC3 cells (p53 Y220C); in test [2]) was 750 to 1500 nM in each case.
Compound `CN1CC[C@@H](Nc2cccn3c(SC(F)(F)F)c(-c4noc(CNC(=O)c5cnc(N(C)C)o5)n4)cc23)[C@@H](F)C1` [Example 12, 2-(dimethylamino)-N-{[3-(8-{[(3S,4R)-3-fluoro-1-methylpiperidin-4-yl]amino}-3-[(trifluoromethyl)sulfanyl]indolizin-2-yl)-1,2,4-oxadiazol-5-yl]methyl}-1,3-oxazole-5-carboxamide] yielded a Kd in test [1] of less than 10 nM. The AC50 at p53 Y220C is less than 750 nM. For the same compound, the IC50 (with NUGC3 cells (p53 Y220C); in test [2]) was less than 750 nM throughout.
With `CN1CC[C@@H](Nc2cccn3c(SC(F)(F)F)c(-c4noc(CNC(=O)c5cnc(C(C)(C)C)o5)n4)cc23)[C@@H](F)C1` [Example 13, 2-tert-butyl-N-{[3-(8-{[(3S,4R)-3-fluoro-1-methylpiperidin-4-yl]amino}-3-[(trifluoromethyl)sulfanyl]indolizin-2-yl)-1,2,4-oxadiazol-5-yl]methyl}-1,3-oxazole-5-carboxamide], the dissociation constant Kd in test [1] is less than 10 nM. Moreover, at p53 Y220C, the AC50 is less than 750 nM. Also, the IC50 (with NUGC3 cells (p53 Y220C); in test [2]) was less than 750 nM each time.
`Cc1c(C(=O)NCc2nc(-c3cc4c(N[C@@H]5CCN(C)C[C@@H]5F)cccn4c3SC(F)(F)F)no2)sc2nc[nH]c(=O)c12` [Example 14, N-{[3-(8-{[(3S,4R)-3-fluoro-1-methylpiperidin-4-yl]amino}-3-[(trifluoromethyl)sulfanyl]indolizin-2-yl)-1,2,4-oxadiazol-5-yl]methyl}-5-methyl-4-oxo-3H-thieno[2,3-d]pyrimidine-6-carboxamide] came in with a Kd in test [1] of 10 to 100 nM. Moreover, the concentration at half-maximal activity (AC50) at p53 Y220C lay in the range of 1500 to 3000 nM. Also, the concentration for half-maximal inhibition (IC50) (with NUGC3 cells (p53 Y220C); in test [2]) was 750 to 1500 nM throughout.
`CN1CC[C@@H](Nc2cccn3c(SC(F)(F)F)c(-c4noc(CNC(=O)c5ccc6c(c5)C(C)(C)C(=O)N6)n4)cc23)[C@@H](F)C1` [Example 15, N-{[3-(8-{[(3S,4R)-3-fluoro-1-methylpiperidin-4-yl]amino}-3-[(trifluoromethyl)sulfanyl]indolizin-2-yl)-1,2,4-oxadiazol-5-yl]methyl}-3,3-dimethyl-2-oxo-1H-indole-5-carboxamide] returned a Kd in test [1] of less than 10 nM. Also, the AC50 at p53 Y220C is less than 750 nM. The IC50 (in the test on NUGC3 cells (p53 Y220C); in test [2]) was less than 750 nM each time.
Consider `CN1CC[C@@H](Nc2cccn3c(SC(F)(F)F)c(-c4noc(CNC(=O)c5ccc6c(c5)NC(=O)C6)n4)cc23)[C@@H](F)C1` [Example 16, N-{[3-(8-{[(3S,4R)-3-fluoro-1-methylpiperidin-4-yl]amino}-3-[(trifluoromethyl)sulfanyl]indolizin-2-yl)-1,2,4-oxadiazol-5-yl]methyl}-2-oxo-1,3-dihydroindole-6-carboxamide], for which the Kd in test [1] was less than 10 nM. Besides, the AC50 at p53 Y220C lay in the range of 750 to 1500 nM. The results for the IC50 (with NUGC3 cells (p53 Y220C); in test [2]) were less than 750 nM and 750 to 1500 nM, respectively.
`CN1CC[C@@H](Nc2cccn3c(SC(F)(F)F)c(-c4noc(CNC(=O)c5cccc6c5NC(=O)C6)n4)cc23)[C@@H](F)C1` [Example 17, N-{[3-(8-{[(3S,4R)-3-fluoro-1-methylpiperidin-4-yl]amino}-3-[(trifluoromethyl)sulfanyl]indolizin-2-yl)-1,2,4-oxadiazol-5-yl]methyl}-2-oxo-1,3-dihydroindole-7-carboxamide]: the Kd in test [1] is less than 10 nM. For the same compound, the AC50 at p53 Y220C is less than 750 nM. For the same compound, the IC50 in the test with NUGC3 cells (p53 Y220C) is less than 750 nM; in test [2], 750 to 1500 nM.
The compound `CN1CC[C@@H](Nc2cccn3c(SC(F)(F)F)c(-c4noc(CNC(=O)c5ccc6c(c5)CC(=O)N6)n4)cc23)[C@@H](F)C1` [Example 18, N-{[3-(8-{[(3S,4R)-3-fluoro-1-methylpiperidin-4-yl]amino}-3-[(trifluoromethyl)sulfanyl]indolizin-2-yl)-1,2,4-oxadiazol-5-yl]methyl}-2-oxo-1,3-dihydroindole-5-carboxamide] came in with a Kd in test [1] of less than 10 nM. On p53 Y220C, the AC50 is 750 to 1500 nM. Further, the IC50 in the test on NUGC3 cells (p53 Y220C) was less than 750 nM; in test [2], 750 to 1500 nM.
With `CN1CC[C@@H](Nc2cccn3c(SC(F)(F)F)c(-c4noc(CNC(=O)c5ccc6[nH]cc(C#N)c6c5)n4)cc23)[C@@H](F)C1` [Example 19, 3-cyano-N-{[3-(8-{[(3S,4R)-3-fluoro-1-methylpiperidin-4-yl]amino}-3-[(trifluoromethyl)sulfanyl]indolizin-2-yl)-1,2,4-oxadiazol-5-yl]methyl}-1H-indole-5-carboxamide], the Kd in test [1] fell in the range of 10 to 100 nM. In addition, the AC50 on p53 Y220C lay in the range of 750 to 1500 nM. Besides, the IC50 (in the test with NUGC3 cells (p53 Y220C); in test [2]) was less than 750 nM throughout.
For `CN1CC[C@@H](Nc2cccn3c(SC(F)(F)F)c(-c4noc(CNC(=O)c5csc(N6CCOCC6)n5)n4)cc23)[C@@H](F)C1` [Example 20, N-{[3-(8-{[(3S,4R)-3-fluoro-1-methylpiperidin-4-yl]amino}-3-[(trifluoromethyl)sulfanyl]indolizin-2-yl)-1,2,4-oxadiazol-5-yl]methyl}-2-(morpholin-4-yl)-1,3-thiazole-4-carboxamide], in test [1], the Kd was less than 10 nM. In addition, the AC50 at p53 Y220C is less than 750 nM. Besides, the IC50 (in the test on NUGC3 cells (p53 Y220C); in test [2]) was less than 750 nM in each case.
For the compound `COc1ccc2[nH]nc(C(=O)NCc3nc(-c4cc5c(N[C@@H]6CCN(C)C[C@@H]6F)cccn5c4SC(F)(F)F)no3)c2c1` [Example 21, N-{[3-(8-{[(3S,4R)-3-fluoro-1-methylpiperidin-4-yl]amino}-3-[(trifluoromethyl)sulfanyl]indolizin-2-yl)-1,2,4-oxadiazol-5-yl]methyl}-5-methoxy-1H-indazole-3-carboxamide], the Kd in test [1] lay within 100 to 1000 nM. Further, the AC50 at p53 Y220C was 1500 to 3000 nM. Also, the concentration for half-maximal inhibition (IC50) (with NUGC3 cells (p53 Y220C); in test [2]) was 1500 to 3000 nM in each case.
`CN1CC[C@@H](Nc2cccn3c(SC(F)(F)F)c(-c4noc(CNC(=O)c5ccc6c(c5)NC(=O)CN6C)n4)cc23)[C@@H](F)C1` [Example 23, N-{[3-(8-{[(3S,4R)-3-fluoro-1-methylpiperidin-4-yl]amino}-3-[(trifluoromethyl)sulfanyl]indolizin-2-yl)-1,2,4-oxadiazol-5-yl]methyl}-1-methyl-3-oxo-2,4-dihydroquinoxaline-6-carboxamide] showed a dissociation constant (Kd) in test [1] of less than 10 nM. For the same compound, on p53 Y220C, the half-maximal activity concentration (AC50) was less than 750 nM. The IC50 (in the test with NUGC3 cells (p53 Y220C); in test [2]) was less than 750 nM throughout.
`CN1CC[C@@H](Nc2cccn3c(SC(F)(F)F)c(-c4noc(CNC(=O)C5(O)CC5)n4)cc23)[C@@H](F)C1` [Example 24, N-{[3-(8-{[(3S,4R)-3-fluoro-1-methylpiperidin-4-yl]amino}-3-[(trifluoromethyl)sulfanyl]indolizin-2-yl)-1,2,4-oxadiazol-5-yl]methyl}-1-hydroxycyclopropane-1-carboxamide] showed a dissociation constant (Kd) in test [1] of less than 10 nM. The AC50 on p53 Y220C is less than 750 nM. Moreover, the IC50 (in the test on NUGC3 cells (p53 Y220C); in test [2]) was 750 to 1500 nM in each case.

The values above are taken from patent US20260347353A1, “INDOLIZINE DERIVATIVES FOR TREATING CANCER” (Antares Therapeutics, Inc., priority 2022, published 2026).
